According to the supplement of paper PMC10307832:

Key:
Test in all cases: relative viability (nuclei count vs DMSO), 5 days (fraction); higher = more cells survive
Bosutinib + Lapatinib = compound: COc1cc(Nc2c(C#N)cnc3cc(OCCCN4CCN(C)CC4)c(OC)cc23)c(Cl)cc1Cl [Bosutinib] + CS(=O)(=O)CCNCc1ccc(-c2ccc3ncnc(Nc4ccc(OCc5cccc(F)c5)c(Cl)c4)c3c2)o1 [Lapatinib] (partner 2 µM)
Outline: (§1)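 Relative viability was taken as the ratio of nuclei in treated wells to nuclei in vehicle wells. Lung cancer cell lines in 1536-well plates received compounds by pin tool one day after seeding, either one drug alone or a fixed anchor-drug dose plus five library-drug doses (not always all listed) in √10 steps. Nuclei were counted on 4× images after 5 days of treatment, and values are medians of duplicate plates.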

Bosutinib + Pemetrexed = compound: COc1cc(Nc2c(C#N)cnc3cc(OCCCN4CCN(C)CC4)c(OC)cc23)c(Cl)cc1Cl [Bosutinib] + Nc1nc2[nH]cc(CCc3ccc(C(=O)N[C@@H](CCC(=O)O)C(=O)O)cc3)c2c(=O)[nH]1 [Pemetrexed] (partner 0.2 µM)
Outline: as §1

Bosutinib + Bortezomib = compound: COc1cc(Nc2c(C#N)cnc3cc(OCCCN4CCN(C)CC4)c(OC)cc23)c(Cl)cc1Cl [Bosutinib] + CC(C)C[C@H](NC(=O)[C@H](Cc1ccccc1)NC(=O)c1cnccn1)B(O)O [Bortezomib] (partner 0.002 µM)
Outline: as §1

Bosutinib + Palbociclib = compound: COc1cc(Nc2c(C#N)cnc3cc(OCCCN4CCN(C)CC4)c(OC)cc23)c(Cl)cc1Cl [Bosutinib] + CC(=O)c1c(C)c2cnc(Nc3ccc(N4CCNCC4)cn3)nc2n(C2CCCC2)c1=O [Palbociclib] (partner 0.5 µM)
Outline: as §1

Bosutinib + Pictilisib = compound: COc1cc(Nc2c(C#N)cnc3cc(OCCCN4CCN(C)CC4)c(OC)cc23)c(Cl)cc1Cl [Bosutinib] + CS(=O)(=O)N1CCN(Cc2cc3nc(-c4cccc5[nH]ncc45)nc(N4CCOCC4)c3s2)CC1 [Pictilisib] (partner 1 µM)
Outline: as §1

Cell Line	relative viability (Bosutinib + Lapatinib; first compound 0.01 µM)	relative viability (Bosutinib + Lapatinib; first compound 0.03162 µM)	relative viability (Bosutinib + Lapatinib; first compound 0.1 µM)	relative viability (Bosutinib + Lapatinib; first compound 1 µM)	relative viability (Bosutinib + Pemetrexed; first compound 0.01 µM)	relative viability (Bosutinib + Pemetrexed; first compound 0.03162 µM)	relative viability (Bosutinib + Pemetrexed; first compound 0.1 µM)	relative viability (Bosutinib + Pemetrexed; first compound 1 µM)	relative viability (Bosutinib + Bortezomib; first compound 0.01 µM)	relative viability (Bosutinib + Bortezomib; first compound 0.03162 µM)	relative viability (Bosutinib + Bortezomib; first compound 0.1 µM)	relative viability (Bosutinib + Bortezomib; first compound 1 µM)	relative viability (Bosutinib + Palbociclib; first compound 0.01 µM)	relative viability (Bosutinib + Palbociclib; first compound 0.03162 µM)	relative viability (Bosutinib + Palbociclib; first compound 0.1 µM)	relative viability (Bosutinib + Palbociclib; first compound 1 µM)	relative viability (Bosutinib + Pictilisib; first compound 0.01 µM)	relative viability (Bosutinib + Pictilisib; first compound 0.03162 µM)	relative viability (Bosutinib + Pictilisib; first compound 0.1 µM)	relative viability (Bosutinib + Pictilisib; first compound 1 µM)
NCI-H1915	0.919	0.965	0.991	1.06	0.461	0.504	0.533	0.46	0.942	0.932	1.02	1.01	0.521	0.513	0.544	0.56	1.04	0.988	1.02	0.968
NCI-H1975	0.907	0.842	0.839	0.712	0.287	0.289	0.292	0.281	0.432	0.399	0.424	0.388	0.572	0.638	0.625	0.516	0.283	0.318	0.338	0.253
NCI-H1993	0.814	0.85	0.947	0.835	0.506	0.663	0.611	0.686	1.11	1.26	1.08	0.949	0.67	0.783	0.718	0.619	0.827	0.896	0.967	0.741
NCI-H2009	0.905	1.02	1.05	0.716	0.944	1.06	1.17	0.946	1.17	1.08	1.1	0.795	0.246	0.302	0.195	0.147	0.997	0.866	0.927	0.557
NCI-H2023	0.967	0.819	0.787	0.793	0.218	0.263	0.23	0.223	0.945	1.01	1.06	0.813	0.373	0.368	0.387	0.297	0.25	0.235	0.272	0.233
NCI-H2085	0.749	0.747	0.813	0.744	0.869	0.863	0.87	0.736	0.982	0.969	1.02	1.04	0.465	0.442	0.469	0.517	0.441	0.45	0.425	0.489
